Experimental findings from PMC3129366 (Chemico-biological interactions, 2011) are described below.

The target of data set [1] is T1, CYP2E1 (Rattus norvegicus, UniProt P05182, species not given). Nature of the data set: Inhibition of chlorzoxazone 6-hydroxylation in CYP2E1 liver microsomes. The note with it: human, microsomes, chlorzoxazone metabolism. (In general: Liver microsomes are a subcellular fraction often used to study metabolism.)
For data set [2], the target named is T1, CYP2E1. Briefly: in vitro. The conditions noted are these: human, microsomes.
Data set [3] deals with Rabbit CYP2E1 (Oryctolagus cuniculus, UniProt P08682). Briefly: Inhibition of p-nitrophenol hydroxylation by purified rabbit CYP2E1. Type of data set: biochemical.
The target of data set [4] is CYP2E1 (Rattus norvegicus, UniProt P05182). Nature of the data set: Inhibition of chlorzoxazone 6-hydroxylation in CYP2E1 liver microsomes. The conditions noted are these: chlorzoxazone metabolism; for pKi: Log (1/Ki).
Setting [5] is: Ki, substituted pyrazoles, purified rabbit CYP2E1, p-nitrophenol as substrate.
[6] abbreviates: pH 7.4, pKi±stdev, Table 3 test set.

T1 sequence (P05182 2-493): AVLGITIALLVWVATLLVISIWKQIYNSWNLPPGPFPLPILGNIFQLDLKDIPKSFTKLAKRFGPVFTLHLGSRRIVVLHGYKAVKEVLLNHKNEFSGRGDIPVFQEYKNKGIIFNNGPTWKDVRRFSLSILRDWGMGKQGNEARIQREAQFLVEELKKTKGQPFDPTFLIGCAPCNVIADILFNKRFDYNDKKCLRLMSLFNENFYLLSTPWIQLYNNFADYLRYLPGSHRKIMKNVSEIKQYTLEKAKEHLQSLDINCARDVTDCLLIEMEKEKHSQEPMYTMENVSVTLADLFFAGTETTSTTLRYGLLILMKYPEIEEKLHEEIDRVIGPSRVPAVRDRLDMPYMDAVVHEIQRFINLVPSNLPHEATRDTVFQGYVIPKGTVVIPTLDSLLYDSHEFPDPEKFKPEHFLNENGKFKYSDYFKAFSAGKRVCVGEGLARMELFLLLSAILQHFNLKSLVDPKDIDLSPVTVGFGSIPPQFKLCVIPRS
Chain of CYP2E1 (Rattus norvegicus, UniProt P05182) (P05182 2-493): as above
Chain of Rabbit CYP2E1 (P08682 whole entry): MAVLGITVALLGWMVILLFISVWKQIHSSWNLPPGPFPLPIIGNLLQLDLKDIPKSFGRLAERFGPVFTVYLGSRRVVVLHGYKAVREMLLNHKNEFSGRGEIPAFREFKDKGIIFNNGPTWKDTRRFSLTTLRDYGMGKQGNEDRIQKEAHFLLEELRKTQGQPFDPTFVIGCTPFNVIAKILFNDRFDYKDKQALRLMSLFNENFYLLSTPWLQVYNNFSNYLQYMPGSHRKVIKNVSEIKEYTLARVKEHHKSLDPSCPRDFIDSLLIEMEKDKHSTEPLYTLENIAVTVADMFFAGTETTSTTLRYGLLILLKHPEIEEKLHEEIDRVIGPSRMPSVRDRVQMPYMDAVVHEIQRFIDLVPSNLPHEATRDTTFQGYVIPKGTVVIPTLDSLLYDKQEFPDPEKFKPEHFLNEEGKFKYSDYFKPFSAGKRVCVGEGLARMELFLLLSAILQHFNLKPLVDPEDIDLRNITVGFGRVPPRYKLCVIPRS

As usually defined, the Ki is the equilibrium dissociation constant of an inhibitor or competing ligand from its target. Higher therefore signals a looser hold on the target. `O=C(n1ccnc1)C(F)(F)F` [1-(trifluoroacetyl)-imidazole] had a Ki at 10 min in data set [1] (pH 7.4, pKi, Log (1/Ki)) of 251 µM.
On the same count and under the same terms, next, `Cn1ccnc1` [1-methylimidazole]: 6.31 µM; `Cc1cccc(C)n1` [2,6-lutidine]: 398 µM.
In the case of `Oc1ccc2ccccc2n1` [2-hydroxyquinoline], the Ki at 10 min is 931 µM in data set [2] (pH 7.4, Ki); 1000 µM in data set [2] (pH 7.4, pKi); 1000 µM in data set [2] (pH 7.4, pKi±stdev).
For the compound `Cc1cc[nH]n1` [3-methylpyrazole], the Ki in data set [3] (setting [5]) turned out to be 5.4 µM.
Take `Cc1cnc2ccccc2c1` [3-methylquinoline]: the Ki at 10 min in data set [1] (pH 7.4, pKi, Log (1/Ki)) is 100 µM.
What is called pKi is the negative decadic logarithm of the Ki, by convention in mol/L. Low readings indicate a high Ki, high ones a low Ki. In data set [3] (Log (1/Ki), substituted pyrazoles, purified rabbit CYP2E1, p-nitrophenol), `CCCOc1cn[nH]c1` [4-O-propylpyrazole] returned a pKi of 6.1. Affinity in data set [3] (substituted pyrazoles, purified rabbit CYP2E1, p-nitrophenol as substrate) was put at a Ki of 0.79 µM.
Regarding `CC(=O)Nc1cn[nH]c1` [4-acetylaminopyrazole], the Ki in data set [3] (setting [5]) came to 5750 µM.
`Cc1n[nH]cc1Br` [4-bromo-3-methylpyrazole] returned a Ki in data set [3] (setting [5]) of 3 µM. This Ki is about 1900-fold lower than that of the compound before.
`OCc1c[nH]cn1` [4-hydroxymethylimidazole]: the Ki at 10 min in data set [1] (pH 7.4, pKi, Log (1/Ki)) is 501 µM.
Consider `Oc1ccnc2ccccc12` [4-hydroxyquinoline], for which the Ki at 10 min in data set [2] (pH 7.4, Ki) was 592 µM; in data set [2] (pH 7.4, pKi) it was 631 µM.
Take `Ic1cn[nH]c1` [4-iodopyrazole]: the affinity in data set [3] (setting [5]) corresponds to a Ki of 1 µM. This lies in the single-digit micromolar range.
Take `O=[N+]([O-])c1c[nH]cn1` [4-nitroimidazole]: the Ki at 10 min in data set [1] (pH 7.4, pKi, Log (1/Ki)) is 12.6 µM; in data set [1] (setting [6]), 12.6 µM.
`O=[N+]([O-])c1cn[nH]c1` [4-nitropyrazole] gave a Ki in data set [3] (setting [5]) of 21 µM.
Consider `CCCCCc1cn[nH]c1` [4-pentylpyrazole], for which, in data set [3] (setting [5]), the affinity corresponds to a Ki of 0.06 µM. Against the preceding compound, the Ki is about 350-fold lower.
Take `CCCc1cn[nH]c1` [4-propylpyrazole]: the Ki in data set [3] (setting [5]) is 0.16 µM; in data set [3] (pKi±stdev, Table 3 test set, substituted pyrazole, purified rabbit CYP2E1, p-nitrophenol) it was 0.158 µM.
For the compound `Oc1ccc2ncccc2c1` [6-hydroxyquinoline], the Ki at 10 min was 218 µM in data set [2] (pH 7.4, Ki) and 200 µM in data set [2] (pH 7.4, pKi).
Regarding `Oc1cccc2cccnc12` [8-hydroxyquinoline], the affinity in data set [1] (pH 7.4, pKi, Log (1/Ki)) corresponds to a Ki at 10 min of 79.4 µM.
`CCCCn1ccnc1` [N-(n-butyl)imidazole] showed a pKi in data set [4] of 6.2.
The compound `COC(=O)c1ccncc1` [methyl isonicotinate] had a pKi in data set [4] of 5.6. Besides, the “pKi±stdev” value in data set [4] (Table 3 test set) was found to be 5.6±0.1.
Compound `COC(=O)c1cccnc1` [methyl nicotinate] gave a Ki at 10 min in data set [1] (pH 7.4, pKi, Log (1/Ki)) of 20 µM.
In the case of `c1cn[nH]c1` [pyrazole], the pKi in data set [4] turned out to be 4.4.
Compound `c1ccncc1` [pyridine] gave a Ki at 10 min in data set [1] (pH 7.4, pKi, Log (1/Ki)) of 12.6 µM. This counts as double-digit micromolar.
For the compound `c1ccc2ncccc2c1` [quinoline], the Ki at 10 min in data set [1] (pH 7.4, pKi, Log (1/Ki)) is 63.1 µM; in data set [1] (setting [6]), 63.1 µM.
